# Laboratory results taken from paper PMC9102431, “Natural Compound Shikonin Is a Novel PAK1 Inhibitor and Enhances Efficacy of Chemotherapy against Pancreatic Cancer Cells” (Molecules, 2022).
# Target: PAK1 (Homo sapiens, UniProt Q13153)
# Assay: ADP-Glo kinase assay with human recombinant PAK1 (also labchip-based screen)
# Format: biochemical
# Sequence of PAK1 (Q13153 2-545): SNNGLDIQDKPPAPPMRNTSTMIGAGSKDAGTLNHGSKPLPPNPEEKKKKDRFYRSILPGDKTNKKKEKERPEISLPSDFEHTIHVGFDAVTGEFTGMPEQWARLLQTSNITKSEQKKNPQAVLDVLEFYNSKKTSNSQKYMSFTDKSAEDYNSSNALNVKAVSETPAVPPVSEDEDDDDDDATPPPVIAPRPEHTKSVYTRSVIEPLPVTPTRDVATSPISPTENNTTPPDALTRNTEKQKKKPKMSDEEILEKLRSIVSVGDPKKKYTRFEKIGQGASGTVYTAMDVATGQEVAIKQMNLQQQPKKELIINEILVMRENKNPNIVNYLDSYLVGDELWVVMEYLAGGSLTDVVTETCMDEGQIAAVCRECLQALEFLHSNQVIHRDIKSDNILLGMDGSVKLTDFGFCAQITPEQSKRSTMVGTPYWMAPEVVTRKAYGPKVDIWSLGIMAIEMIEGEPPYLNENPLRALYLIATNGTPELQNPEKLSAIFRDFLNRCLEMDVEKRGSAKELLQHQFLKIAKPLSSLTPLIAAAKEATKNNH
smiles,measurement,value
CC(C)=CC[C@@H](O)C1=CC(=O)c2c(O)ccc(O)c2C1=O [shikonin],IC50,7.252 ± 0.054 µM
